Test results reported in US6924276B2, “Diacid-substituted heteroaryl derivatives as matrix metalloproteinase inhibitors” (Warner-Lambert Company, priority 2001, dated 2005).

Legend:
[1] = molecular target: MMP-13CD (catalytic domain of collagenase-3) (Homo sapiens, UniProt P45452); experiment: thiopeptolide substrate hydrolysis assay, MMP-13CD; format: biochemical
Source text: (§1) The invention compounds of Formula I have been evaluated in standard assays for their ability to inhibit the activity of various MMP enzymes. The assays used to evaluate the biological activity of the invention compounds are well known and routinely used by those skilled in the study of MMP inhibitors and their use to treat clinical conditions.
(§2) Such assays are described in detail by Ye et al., in Biochemistry, 1992;31(45):11231-11235, which is incorporated herein by reference.
(§3) Thiopeptolide substrates show virtually no decomposition or hydrolysis in the absence of a matrix metalloproteinase enzyme. A typical thiopeptolide substrate commonly utilized for assays is Ac-Pro-Leu-Gly-thioester;-Leu-Leu-Gly-OEt. A 100 μL assay mixture will contain 50 mM of 2-morpholinoethane sulfonic acid monohydrate (MES, pH 6.0) 10 mM CaCl2, 100 μM thiopeptolide substrate, and 1 mM 5,5′-dithio-bis-(2-nitro-benzoic acid) (DTNB). The thiopeptolide substrate concentration is varied from 10 to 800 μM to obtain Km and Kcat values. The change in absorbance at 405 nm is monitored on a Thermo Max microplate reader (Molecular Devices, Menlo Park, Calif.) at room temperature (22° C.). The calculation of the amount of hydrolysis of the thiopeptolide substrate is based on E412=13600 m^−1 cm^−1 for the DTNB-derived product 3-carboxy-4-nitrothiophenoxide. Assays are carried out with and without matrix metalloproteinase inhibitor compounds, and the amount of hydrolysis is compared for a determination of inhibitory activity of the test compounds.
Several representative compounds have been evaluated for their ability to inhibit various matrix metalloproteinase enzymes. The invention compounds are uniquely active in inhibiting MMP-13. Table 1 below presents inhibitory activity for invention compounds in the column labelled “MMP-13CD IC50, μM”. In the table, MMP-13CD refers to the catalytic domain of collagenase-3. It has been shown previously (Ye Qi-Zhuang, Hupe D., Johnson L., Current Medicinal Chemistry, 1996;3:407-418) that inhibitor activity against a catalytic domain of an MMP is predictive of the inhibitor activity against the respective full-length enzyme. Test compounds were evaluated at various concentrations in order to determine their respective IC50 values, the micromolar concentration of compound required to cause a 50% inhibition of the hydrolytic activity of the respective enzyme.

[2] = molecular target: T1, MMP-9CD (Homo sapiens, UniProt P14780); experiment: thiopeptolide substrate hydrolysis assay, MMP-9CD; format: biochemical; details: Table 2, catalytic domain
T1 construct: "MMP-9CD"
T1 sequence (P14780 with tags, fused parts or gaps DEL216-390 limits assumed): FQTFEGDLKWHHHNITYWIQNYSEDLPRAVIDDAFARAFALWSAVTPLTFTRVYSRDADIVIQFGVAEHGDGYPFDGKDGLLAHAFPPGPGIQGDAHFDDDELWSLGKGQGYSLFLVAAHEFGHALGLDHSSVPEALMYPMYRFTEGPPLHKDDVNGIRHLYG
Source text: as §1, §2, §3
(§4) The invention compounds are also selective inhibitors of MMP-13 versus other MMP enzymes, including versus MMP-7 and MMP-9. This is shown by comparing the IC50 data presented below in Table 2 in the columns labeled “MMP-7 IC50 (μM),” “MMP-9CD IC50 (μM),” and “MMP-13CD IC50 (μM),” respectively.

[3] = molecular target: T2, MMP-7 (Homo sapiens, UniProt P09237); experiment: thiopeptolide substrate hydrolysis assay, MMP-7; format: biochemical; details: Table 2
T2 sequence (P09237 95-267): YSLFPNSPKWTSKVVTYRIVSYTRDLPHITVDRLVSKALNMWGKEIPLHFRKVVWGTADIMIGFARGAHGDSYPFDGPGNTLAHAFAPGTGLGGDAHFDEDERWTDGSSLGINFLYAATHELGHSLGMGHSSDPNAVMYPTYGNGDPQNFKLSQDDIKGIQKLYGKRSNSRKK
Source text: as §1, §2, §3, §4

Row | Structure (SMILES) | IC50 ([1]; Table 1) [µM] | melting point [°C] | IC50 [2] [µM] | IC50 [3] [µM] | IC50 ([1]; Table 2) [µM]
1 | Cn1cc(C(=O)OCc2ccc3c(c2)OCO3)cc1C(=O)OCc1ccc2c(c1)OCO2 [Example 7, 1-Methyl-1H-pyrrole-2,4-dicarboxylic Acid di-1,3-benzodioxol-5-ylmethyl Ester] | 0.97 | 103 to 110 | – | – | –
2 | Cn1cc(C(=O)NCc2ccc3c(c2)OCO3)cc1C(=O)NCc1ccc2c(c1)OCO2 [Example 8, 1-Methyl-1H-pyrrole-2,4-dicarboxylic Acid bis-[(1,3-benzodioxol-5-ylmethyl)-amide]] | 3 | 147 to 152 | – | – | –
3 | Cc1sc(C(=O)NCc2ccccc2)cc1NC(=O)Cc1ccccc1 [Example 10, 5-Methyl-4-phenylacetylamino-thiophene-2-carboxylic Acid Benzylamide] | 30 | – | 30 | – | –
4 | Cc1sc(C(=O)OCc2ccc3c(c2)OCO3)cc1NC(=O)Cc1ccccc1 [Example 11, 5-Methyl-4-phenylacetylamino-thiophene-2-carboxylic Acid 1,3-benzodioxol-5-ylmethyl Ester] | 0.19 | – | – | – | –
5 | Cc1sc(C(=O)NCc2ccc3c(c2)OCO3)cc1NC(=O)Cc1ccccc1 [Example 12, 5-Methyl-4-phenylacetylamino-thiophene-2-carboxylic Acid (1,3-benzodioxol-5-ylmethyl)-amide] | 2.7 | 138 to 140 | – | – | –
6 | Cc1sc(C(=O)OCc2ccccc2)cc1NC(=O)NCc1ccccc1 [Example 13, 4-(3-Benzyl-ureido)-5-methyl-thiophene-2-carboxylic Acid Benzyl Ester] | 22 | 208 to 209 | 30 | 30 | –
7 | Cc1sc(C(=O)NCc2ccccc2)cc1NC(=O)NCc1ccccc1 [Example 14, 4-(3-Benzyl-ureido)-5-methyl-thiophene-2-carboxylic Acid Benzylamide] | 14 | – | 99 | – | –
8 | Cc1sc(C(=O)OCc2ccc3c(c2)OCO3)cc1NC(=O)NCc1ccccc1 [Example 15a, 4-(3-Benzyl-ureido)-5-methyl-thiophene-2-carboxylic Acid 1,3-benzodioxol-5-ylmethyl Ester] | – | 216 to 217 | – | – | 0.35
9 | CNc1sc(C(=O)NCc2ccc(OC)cc2)cc1C(=O)NCc1ccc(C(=O)O)c(C)c1 [Example 21, 4-({[5-(4-Methoxy-benzylcarbamoyl)-2-methylamino-thiophene-3-carbonyl]-amino}-methyl)-2-methyl-benzoic Acid] | 3.4 | – | – | – | –

Next, values leading:

Row | IC50 ([1]; Table 1) [µM] | melting point [°C] | IC50 [2] [µM] | IC50 [3] [µM] | IC50 ([1]; Table 2) [µM] | Structure (SMILES)
10 | 8.6 | 141 to 148 | – | – | – | O=C(OCc1ccc2c(c1)OCO2)c1ccc(C(=O)OCc2ccc3c(c2)OCO3)s1 [Example 1, Thiophene-2,5-dicarboxylic Acid di-1,3-benzodioxol-5-ylmethyl Ester]
11 | 0.85 | 207 to 209 | 30 | 30 | – | O=C(NCc1ccc2c(c1)OCO2)c1ccc(C(=O)NCc2ccc3c(c2)OCO3)s1 [Example 2, Thiophene-2,5-dicarboxylic Acid bis-[(1,3-benzodioxol-5-ylmethyl)-amide]]
12 | 3.6 | 153 to 155 | – | – | – | COc1cc(C(=O)OCc2ccc3c(c2)OCO3)sc1C(=O)OCc1ccc2c(c1)OCO2 [Example 3, 3-Methoxy-thiophene-2,5-dicarboxylic Acid di-1,3-benzodioxol-5-ylmethyl Ester]
13 | 0.2 | 191 to 195 | – | 30 | – | COc1cc(C(=O)NCc2ccc3c(c2)OCO3)sc1C(=O)NCc1ccc2c(c1)OCO2 [Example 4, 3-Methoxy-thiophene-2,5-dicarboxylic Acid bis-[(1,3-benzodioxol-5-ylmethyl)-amide]]
14 | 0.45 | 164 to 165 | 30 | 10 | – | O=C(OCc1ccc2c(c1)OCO2)c1csc(C(=O)OCc2ccc3c(c2)OCO3)c1 [Example 5, Thiophene-2,4-dicarboxylic Acid di-1,3-benzodioxol-5-ylmethyl Ester]
15 | 0.37 | 174 to 175 | – | 32 | – | O=C(NCc1ccc2c(c1)OCO2)c1csc(C(=O)NCc2ccc3c(c2)OCO3)c1 [Example 6, Thiophene-2,4-dicarboxylic Acid bis-[(1,3-benzodioxol-5-ylmethyl)-amide]]
16 | 2.3 | 173 to 174 | – | – | – | Cc1sc(C(=O)OCc2ccccc2)cc1NC(=O)Cc1ccccc1 [Example 9, 5-Methyl-4-phenylacetylamino-thiophene-2-carboxylic Acid Benzyl Ester]
17 | 0.92 | 194 to 195 | 30 | 45 | – | Cc1sc(C(=O)NCc2ccc3c(c2)OCO3)cc1NC(=O)NCc1ccccc1 [Example 15b, 4-(3-Benzyl-ureido)-5-methyl-thiophene-2-carboxylic Acid (1,3-benzodioxol-5-ylmethyl)-amide]
18 | 2 | 185 to 187 | – | – | – | COC(=O)c1cc(NC(=O)NCc2ccccc2)c(C)s1 [Example 16, 5-Methyl-4-(3-benzyl-ureido)-thiophene-2-carboxylic Acid Methyl Ester]
19 | ≥ 100 | – | – | – | – | COc1cc(C(=O)NCc2ccccc2)sc1C(=O)NCc1ccccc1 [Example 22, 3-Methoxy-thiophene-2,5-dicarboxylic Acid Bis Benzylamide]
20 | 30 | 188 to 192 | – | – | – | O=C(NCc1ccccc1)Nc1nnc(C(=O)OCc2ccccc2)s1 [Example 23, 5-(3-Benzyl-ureido)-1,3,4-thiadiazole-2-carboxylic Acid Benzyl Ester]
